According to ChEMBL document CHEMBL4507284, “Data for DCP probe BI-1230” (2021):
The source made the active and inactive calls. The rule behind the calls is not given here.

Legend:
[1] = target: Mitogen-activated protein kinase kinase kinase 14 (Homo sapiens) (UniProt Q99558); settings: Compound concentration 1000.0 nM
[2] = target: Myosin light chain kinase family member 4 (Homo sapiens) (UniProt Q86YV6); settings: Compound concentration 1000.0 nM
[3] = target: Serine/threonine-protein kinase Nek6 (Homo sapiens) (UniProt Q9HC98); settings: Compound concentration 1000.0 nM
[4] = target: Serine/threonine-protein kinase Nek7 (Homo sapiens) (UniProt Q8TDX7); settings: Compound concentration 1000.0 nM
Sequence of Serine/threonine-protein kinase Nek7 (Homo sapiens) (Q8TDX7 whole entry, looked up): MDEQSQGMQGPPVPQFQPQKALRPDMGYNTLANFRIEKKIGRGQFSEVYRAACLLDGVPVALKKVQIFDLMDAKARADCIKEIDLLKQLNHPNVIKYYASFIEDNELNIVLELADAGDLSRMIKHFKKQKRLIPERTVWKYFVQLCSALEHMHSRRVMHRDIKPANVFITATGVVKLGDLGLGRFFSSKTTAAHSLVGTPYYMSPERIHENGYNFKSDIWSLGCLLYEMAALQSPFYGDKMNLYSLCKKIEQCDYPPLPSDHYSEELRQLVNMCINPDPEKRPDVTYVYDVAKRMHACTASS

[5] = target: Serine/threonine-protein kinase B-raf (Homo sapiens) (UniProt P15056); settings: Compound concentration 1000.0 nM
[6] = target: 3-phosphoinositide-dependent protein kinase 1 (Homo sapiens) (UniProt O15530); settings: Compound concentration 1000.0 nM
[7] = target: Serine/threonine-protein kinase 35 (Homo sapiens) (UniProt Q8TDR2); settings: Compound concentration 1000.0 nM
[8] = target: Tyrosine-protein kinase ABL1 (Homo sapiens) (UniProt P00519); settings: Compound concentration 1000.0 nM
[9] = target: Serine/threonine-protein kinase MRCK alpha (Homo sapiens) (UniProt Q5VT25); settings: Compound concentration 1000.0 nM
[10] = target: Transient receptor potential cation channel subfamily M member 6 (Homo sapiens) (UniProt Q9BX84); settings: Compound concentration 1000.0 nM
[11] = target: BMP-2-inducible protein kinase (Homo sapiens) (UniProt Q9NSY1); settings: Compound concentration 1000.0 nM
[12] = target: Phosphatidylinositol 4,5-bisphosphate 3-kinase catalytic subunit gamma isoform (Homo sapiens) (UniProt P48736); settings: Compound concentration 1000.0 nM
[13] = target: Ribosomal protein S6 kinase alpha-4 (Homo sapiens) (UniProt O75676); settings: Compound concentration 1000.0 nM
[14] = system: Phosphatidylinositol 4,5-bisphosphate 3-kinase catalytic subunit alpha isoform (Homo sapiens), P42336 [E542K]; settings: Compound concentration 1000.0 nM
[15] = target: Calcium/calmodulin-dependent protein kinase type IV (Homo sapiens) (UniProt Q16566); settings: Compound concentration 1000.0 nM
[16] = target: Ephrin type-A receptor 6 (Homo sapiens) (UniProt Q9UF33); settings: Compound concentration 1000.0 nM
[17] = target: Muscarinic acetylcholine receptor M1 (Homo sapiens) (UniProt P11229); settings: Compound concentration 10.0 uM
[18] = target: Tyrosine-protein kinase FRK (Homo sapiens) (UniProt P42685); settings: Compound concentration 1000.0 nM
[19] = target: Interleukin-1 receptor-associated kinase 4 (Homo sapiens) (UniProt Q9NWZ3); settings: Compound concentration 1000.0 nM
[20] = target: Dual specificity tyrosine-phosphorylation-regulated kinase 2 (Homo sapiens) (UniProt Q92630); settings: Compound concentration 1000.0 nM
[21] = target: Mitogen-activated protein kinase kinase kinase 11 (Homo sapiens) (UniProt Q16584); settings: Compound concentration 1000.0 nM
[22] = system: Phosphatidylinositol 4,5-bisphosphate 3-kinase catalytic subunit alpha isoform (Homo sapiens), P42336 [E545A]; settings: Compound concentration 1000.0 nM
[23] = target: Casein kinase I isoform delta (Homo sapiens) (UniProt P48730); settings: Compound concentration 1000.0 nM
Sequence of Casein kinase I isoform delta (Homo sapiens) (P48730 whole entry, looked up, canonical isoform): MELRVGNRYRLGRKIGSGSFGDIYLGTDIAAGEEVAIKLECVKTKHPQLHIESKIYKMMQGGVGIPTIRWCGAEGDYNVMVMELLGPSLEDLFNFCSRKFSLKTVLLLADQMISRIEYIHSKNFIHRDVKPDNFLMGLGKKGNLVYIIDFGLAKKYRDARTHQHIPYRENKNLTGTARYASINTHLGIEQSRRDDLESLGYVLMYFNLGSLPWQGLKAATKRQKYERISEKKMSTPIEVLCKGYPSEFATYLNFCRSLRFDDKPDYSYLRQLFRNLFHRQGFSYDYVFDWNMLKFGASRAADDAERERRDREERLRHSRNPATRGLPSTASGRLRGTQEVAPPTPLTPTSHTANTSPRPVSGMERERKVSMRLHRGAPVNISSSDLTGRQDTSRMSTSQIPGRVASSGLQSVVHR

[24] = target: Serine/threonine-protein kinase MRCK beta (Homo sapiens) (UniProt Q9Y5S2); settings: Compound concentration 1000.0 nM
Sequence of Serine/threonine-protein kinase MRCK beta (Homo sapiens) (Q9Y5S2 whole entry): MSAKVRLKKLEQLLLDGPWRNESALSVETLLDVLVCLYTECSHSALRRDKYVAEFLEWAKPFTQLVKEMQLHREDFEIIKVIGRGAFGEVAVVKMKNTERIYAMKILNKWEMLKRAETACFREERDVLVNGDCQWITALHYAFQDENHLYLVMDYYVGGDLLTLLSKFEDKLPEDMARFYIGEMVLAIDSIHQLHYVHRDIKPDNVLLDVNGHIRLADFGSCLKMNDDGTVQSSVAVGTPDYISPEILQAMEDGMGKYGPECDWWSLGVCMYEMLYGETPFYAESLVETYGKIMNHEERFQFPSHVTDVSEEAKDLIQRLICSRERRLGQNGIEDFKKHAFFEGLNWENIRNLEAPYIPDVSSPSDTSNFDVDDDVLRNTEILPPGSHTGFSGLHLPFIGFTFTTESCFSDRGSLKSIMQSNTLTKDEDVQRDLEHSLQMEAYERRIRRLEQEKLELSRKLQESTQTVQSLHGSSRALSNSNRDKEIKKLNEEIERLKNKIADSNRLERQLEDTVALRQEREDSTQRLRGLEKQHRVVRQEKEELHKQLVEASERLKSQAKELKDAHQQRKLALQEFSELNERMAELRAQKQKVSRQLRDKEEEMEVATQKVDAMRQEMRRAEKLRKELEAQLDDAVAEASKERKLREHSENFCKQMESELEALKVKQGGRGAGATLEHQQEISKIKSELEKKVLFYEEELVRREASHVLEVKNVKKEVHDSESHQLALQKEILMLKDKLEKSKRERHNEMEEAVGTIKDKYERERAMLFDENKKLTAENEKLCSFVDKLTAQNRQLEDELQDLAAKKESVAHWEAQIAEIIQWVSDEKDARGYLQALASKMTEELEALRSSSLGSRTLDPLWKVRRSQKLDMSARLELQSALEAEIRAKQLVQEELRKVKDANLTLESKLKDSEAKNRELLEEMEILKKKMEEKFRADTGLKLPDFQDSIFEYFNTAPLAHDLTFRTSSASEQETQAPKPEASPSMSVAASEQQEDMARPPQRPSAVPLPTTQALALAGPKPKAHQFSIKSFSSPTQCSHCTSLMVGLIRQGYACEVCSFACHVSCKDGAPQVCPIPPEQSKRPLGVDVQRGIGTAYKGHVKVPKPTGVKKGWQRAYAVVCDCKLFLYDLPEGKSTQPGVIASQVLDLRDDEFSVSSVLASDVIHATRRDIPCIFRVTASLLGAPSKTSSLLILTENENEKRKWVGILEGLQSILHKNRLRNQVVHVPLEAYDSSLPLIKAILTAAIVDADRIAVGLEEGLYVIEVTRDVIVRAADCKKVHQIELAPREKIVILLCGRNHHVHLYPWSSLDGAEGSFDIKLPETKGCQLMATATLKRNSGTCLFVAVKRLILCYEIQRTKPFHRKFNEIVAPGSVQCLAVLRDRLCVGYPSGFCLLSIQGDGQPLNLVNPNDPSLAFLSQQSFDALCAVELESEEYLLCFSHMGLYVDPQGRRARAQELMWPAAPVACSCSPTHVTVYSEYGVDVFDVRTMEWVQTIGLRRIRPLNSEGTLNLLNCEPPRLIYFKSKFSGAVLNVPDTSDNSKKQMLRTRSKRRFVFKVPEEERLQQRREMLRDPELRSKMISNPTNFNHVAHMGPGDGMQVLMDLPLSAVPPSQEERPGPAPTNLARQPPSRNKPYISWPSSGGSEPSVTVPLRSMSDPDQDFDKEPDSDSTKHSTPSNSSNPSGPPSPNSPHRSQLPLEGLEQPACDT

[25] = target: Myotonin-protein kinase (Homo sapiens) (UniProt Q09013); settings: Compound concentration 1000.0 nM
[26] = target: Sigma intracellular receptor 2 (Homo sapiens) (UniProt Q5BJF2); settings: Compound concentration 10.0 uM
[27] = target: Activated CDC42 kinase 1 (Homo sapiens) (UniProt Q07912); settings: Compound concentration 1000.0 nM
[28] = system: Receptor-type tyrosine-protein kinase FLT3 (Homo sapiens), P36888 [UNDEFINED MUTATION]; settings: Compound concentration 1000.0 nM
NS3 protease = NS3 protease (Hepacivirus C, UniProt C1KIQ2); test: Enzymatic assay; parameters: species or system Hepacivirus hominis
[29] = target: Alpha-2C adrenergic receptor (Homo sapiens) (UniProt P18825); settings: Compound concentration 10.0 uM
[30] = target: Ephrin type-B receptor 6 (Homo sapiens) (UniProt O15197); settings: Compound concentration 1000.0 nM
[31] = target: Serine/threonine-protein kinase Sgk1 (Homo sapiens) (UniProt O00141); settings: Compound concentration 1000.0 nM
[32] = target: Homeodomain-interacting protein kinase 4 (Homo sapiens) (UniProt Q8NE63); settings: Compound concentration 1000.0 nM
[33] = target: Serine/threonine-protein kinase DCLK2 (Homo sapiens) (UniProt Q8N568); settings: Compound concentration 1000.0 nM
[34] = target: Cyclin-dependent kinase-like 1 (Homo sapiens) (UniProt Q00532); settings: Compound concentration 1000.0 nM
[35] = target: Myosin-IIIa (Homo sapiens) (UniProt Q8NEV4); settings: Compound concentration 1000.0 nM
[36] = target: Epithelial discoidin domain-containing receptor 1 (Homo sapiens) (UniProt Q08345); settings: Compound concentration 1000.0 nM
[37] = target: Alpha-2B adrenergic receptor (Homo sapiens) (UniProt P18089); settings: Compound concentration 10.0 uM
Sequence of Alpha-2B adrenergic receptor (Homo sapiens) (P18089 whole entry): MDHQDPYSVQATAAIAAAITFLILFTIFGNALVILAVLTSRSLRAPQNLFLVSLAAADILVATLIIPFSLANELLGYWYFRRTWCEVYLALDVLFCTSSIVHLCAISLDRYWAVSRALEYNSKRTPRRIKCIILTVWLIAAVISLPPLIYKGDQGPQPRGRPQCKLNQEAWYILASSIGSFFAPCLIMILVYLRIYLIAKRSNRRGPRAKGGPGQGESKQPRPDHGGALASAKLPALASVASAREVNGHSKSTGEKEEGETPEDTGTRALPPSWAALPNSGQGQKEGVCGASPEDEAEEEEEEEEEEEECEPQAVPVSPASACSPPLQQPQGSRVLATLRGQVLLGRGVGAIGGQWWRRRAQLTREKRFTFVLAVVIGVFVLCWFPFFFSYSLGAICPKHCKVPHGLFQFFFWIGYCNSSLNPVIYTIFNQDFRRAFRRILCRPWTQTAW

[38] = target: Muscle, skeletal receptor tyrosine-protein kinase (Homo sapiens) (UniProt O15146); settings: Compound concentration 1000.0 nM
[39] = target: Calcium-dependent protein kinase 1 (Plasmodium falciparum) (UniProt P62344); settings: Compound concentration 1000.0 nM
[40] = target: Homeodomain-interacting protein kinase 3 (Homo sapiens) (UniProt Q9H422); settings: Compound concentration 1000.0 nM
[41] = target: Serine/threonine-protein kinase 26 (Homo sapiens) (UniProt Q9P289); settings: Compound concentration 1000.0 nM
[42] = target: Serine/threonine-protein kinase Nek1 (Homo sapiens) (UniProt Q96PY6); settings: Compound concentration 1000.0 nM
Sequence of Serine/threonine-protein kinase Nek1 (Homo sapiens) (Q96PY6 whole entry): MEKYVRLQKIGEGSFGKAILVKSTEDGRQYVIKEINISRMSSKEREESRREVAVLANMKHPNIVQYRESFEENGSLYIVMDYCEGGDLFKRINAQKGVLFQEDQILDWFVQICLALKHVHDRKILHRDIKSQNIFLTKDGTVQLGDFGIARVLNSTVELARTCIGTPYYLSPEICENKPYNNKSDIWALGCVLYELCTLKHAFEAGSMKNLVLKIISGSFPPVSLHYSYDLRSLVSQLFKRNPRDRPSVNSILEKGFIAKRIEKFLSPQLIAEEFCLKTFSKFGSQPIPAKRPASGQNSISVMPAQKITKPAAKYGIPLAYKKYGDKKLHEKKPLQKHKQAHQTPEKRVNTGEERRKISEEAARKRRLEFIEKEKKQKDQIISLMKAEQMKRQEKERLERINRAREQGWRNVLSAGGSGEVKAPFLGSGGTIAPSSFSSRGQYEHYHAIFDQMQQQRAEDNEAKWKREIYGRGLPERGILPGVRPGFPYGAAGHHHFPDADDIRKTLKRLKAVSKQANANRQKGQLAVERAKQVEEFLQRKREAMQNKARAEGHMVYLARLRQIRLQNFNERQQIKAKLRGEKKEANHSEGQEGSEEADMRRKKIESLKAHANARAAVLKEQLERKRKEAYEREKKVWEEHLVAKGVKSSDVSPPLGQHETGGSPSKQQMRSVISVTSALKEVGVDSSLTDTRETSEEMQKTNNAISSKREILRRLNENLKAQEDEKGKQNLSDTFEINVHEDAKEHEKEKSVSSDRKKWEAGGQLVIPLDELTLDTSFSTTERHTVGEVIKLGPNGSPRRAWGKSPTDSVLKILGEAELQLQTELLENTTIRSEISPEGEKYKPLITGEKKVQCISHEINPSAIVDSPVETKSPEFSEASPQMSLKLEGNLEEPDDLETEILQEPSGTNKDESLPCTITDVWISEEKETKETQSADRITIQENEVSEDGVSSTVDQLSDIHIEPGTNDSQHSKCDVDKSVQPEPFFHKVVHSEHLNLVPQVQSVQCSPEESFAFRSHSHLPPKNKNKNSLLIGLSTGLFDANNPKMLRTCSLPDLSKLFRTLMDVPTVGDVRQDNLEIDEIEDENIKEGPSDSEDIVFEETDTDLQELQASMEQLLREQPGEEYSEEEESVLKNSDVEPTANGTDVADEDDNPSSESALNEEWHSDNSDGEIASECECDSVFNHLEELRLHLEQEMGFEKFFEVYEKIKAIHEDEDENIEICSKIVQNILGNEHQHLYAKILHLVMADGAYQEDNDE

[43] = target: Focal adhesion kinase 1 (Homo sapiens) (UniProt Q05397); settings: Compound concentration 1000.0 nM
[44] = target: Phosphatidylinositol 4,5-bisphosphate 3-kinase catalytic subunit beta isoform (Homo sapiens) (UniProt P42338); settings: Compound concentration 1000.0 nM

Sequence of Mitogen-activated protein kinase kinase kinase 14 (Homo sapiens) (Q99558 whole entry, looked up): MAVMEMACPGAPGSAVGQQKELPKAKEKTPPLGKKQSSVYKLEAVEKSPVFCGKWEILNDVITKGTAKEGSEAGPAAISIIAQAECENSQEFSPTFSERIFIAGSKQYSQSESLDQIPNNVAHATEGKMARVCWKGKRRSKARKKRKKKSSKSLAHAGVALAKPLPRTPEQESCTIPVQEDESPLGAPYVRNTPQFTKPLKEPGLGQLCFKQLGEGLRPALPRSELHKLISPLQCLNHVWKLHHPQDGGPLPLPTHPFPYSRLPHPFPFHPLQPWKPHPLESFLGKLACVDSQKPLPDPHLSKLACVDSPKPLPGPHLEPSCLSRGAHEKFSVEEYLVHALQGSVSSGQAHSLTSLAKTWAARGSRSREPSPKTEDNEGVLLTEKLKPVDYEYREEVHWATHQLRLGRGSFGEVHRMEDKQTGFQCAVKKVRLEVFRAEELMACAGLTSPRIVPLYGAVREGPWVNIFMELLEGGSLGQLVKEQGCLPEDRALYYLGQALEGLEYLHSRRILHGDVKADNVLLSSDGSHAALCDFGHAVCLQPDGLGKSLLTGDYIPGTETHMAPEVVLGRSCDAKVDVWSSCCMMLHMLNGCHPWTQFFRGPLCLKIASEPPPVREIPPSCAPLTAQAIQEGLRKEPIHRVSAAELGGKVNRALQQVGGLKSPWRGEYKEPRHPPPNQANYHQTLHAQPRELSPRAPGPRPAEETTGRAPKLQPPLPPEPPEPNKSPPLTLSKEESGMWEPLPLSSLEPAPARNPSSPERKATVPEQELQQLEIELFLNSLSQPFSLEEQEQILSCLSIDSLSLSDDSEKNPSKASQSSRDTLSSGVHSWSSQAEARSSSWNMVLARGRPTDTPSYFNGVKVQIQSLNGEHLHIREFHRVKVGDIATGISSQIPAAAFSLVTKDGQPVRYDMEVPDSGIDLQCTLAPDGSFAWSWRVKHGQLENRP

Which residual activity [1] does the source give for COc1ccc2c(O[C@@H]3C[C@H]4C(=O)N[C@]5(C(=O)O)CC5/C=C\CCCCC[C@H](NC(=O)OC5CCCC5)C(=O)N4C3)cc(-c3csc(NC(=O)C(C)C)n3)nc2c1C (stereo not given in full) [BI 1230] here?
Its residual activity is 89%.

And the residual activity [2]?
The residual activity was 81%.

And the residual activity [3]?
The residual activity was 98%.

What about the residual activity [4] of the same compound?
Its residual activity is 100%.

And the residual activity [5]?
The residual activity was 86%.

What about the residual activity [6] of the same compound?
Its residual activity is 99%.

What about the residual activity [7] of the same compound?
The residual activity was 100%.

And the residual activity [8]?
Its residual activity is 74%.

And the residual activity [9]?
The residual activity was 100%.

What about the residual activity [10] of the same compound?
Its residual activity is 100%.

And the residual activity [11]?
Its residual activity is 90%.

And the residual activity [12]?
Its residual activity is 65%.

And the residual activity [13]?
Its residual activity is 96%.

What about the residual activity [14] of the same compound?
Its residual activity is 71%.

What about the residual activity [15] of the same compound?
Its residual activity is 95%.

And the residual activity [16]?
The residual activity was 100%.

And the inhibition [17]?
The inhibition was 8.82%.

And the residual activity [18]?
Its residual activity is 100%.

What about the residual activity [19] of the same compound?
Its residual activity is 71%.

And the residual activity [20]?
Its residual activity is 77%.

What about the residual activity [21] of the same compound?
The residual activity was 100%.

And the residual activity [22]?
Its residual activity is 100%.

And the residual activity [23]?
The residual activity was 100%.

And the residual activity [24]?
The residual activity was 96%.

What about the residual activity [25] of the same compound?
Its residual activity is 83%.

What about the inhibition [26] of the same compound?
Its inhibition is 28%.

What about the residual activity [27] of the same compound?
The residual activity was 100%.

And the residual activity [28]?
The residual activity was 97%.

And the IC50 (NS3 protease)?
Its IC50 is 6.7 nM (active).

What about the inhibition [29] of the same compound?
The inhibition was 56.8%.

And the residual activity [30]?
Its residual activity is 89%.

And the residual activity [31]?
The residual activity was 81%.

And the residual activity [32]?
Its residual activity is 99%.

And the residual activity [33]?
The residual activity was 95%.

What about the residual activity [34] of the same compound?
The residual activity was 99%.

And the residual activity [35]?
Its residual activity is 100%.

What about the residual activity [36] of the same compound?
The residual activity was 100%.

What about the inhibition [37] of the same compound?
The inhibition was 60.3%.

What about the residual activity [38] of the same compound?
Its residual activity is 91%.

What about the residual activity [39] of the same compound?
The residual activity was 100%.

And the residual activity [40]?
Its residual activity is 83%.

And the residual activity [41]?
Its residual activity is 95%.

And the residual activity [42]?
Its residual activity is 100%.

And the residual activity [43]?
Its residual activity is 99%.

And the residual activity [44]?
Its residual activity is 62%.

O=C(N[C@H]1CCCCC/C=C\C2C[C@@]2(C(=O)O)NC(=O)[C@@H]2C[C@@H](Oc3ccncc3)CN2C1=O)OC1CCCC1 (stereo not given in full) [BI 1675] was tested. Which residual activity [1] did it give?
Its residual activity is 100%.

What about the residual activity [2] of the same compound?
The residual activity was 100%.

What about the residual activity [3] of the same compound?
The residual activity was 87%.

What about the residual activity [4] of the same compound?
Its residual activity is 100%.

What about the residual activity [5] of the same compound?
Its residual activity is 100%.

What about the residual activity [6] of the same compound?
The residual activity was 92%.

And the residual activity [7]?
Its residual activity is 100%.

What about the residual activity [8] of the same compound?
The residual activity was 85%.

And the residual activity [9]?
Its residual activity is 87%.

And the residual activity [10]?
Its residual activity is 98%.

And the residual activity [11]?
The residual activity was 96%.

And the residual activity [12]?
The residual activity was 78%.

What about the residual activity [13] of the same compound?
The residual activity was 100%.

And the residual activity [14]?
Its residual activity is 96%.

What about the residual activity [15] of the same compound?
The residual activity was 90%.

And the residual activity [16]?
Its residual activity is 100%.

And the inhibition [17]?
Its inhibition is 14.1%.

What about the residual activity [18] of the same compound?
The residual activity was 100%.

What about the residual activity [19] of the same compound?
The residual activity was 88%.

And the residual activity [20]?
Its residual activity is 66%.

What about the residual activity [21] of the same compound?
Its residual activity is 97%.

What about the residual activity [22] of the same compound?
The residual activity was 100%.

What about the residual activity [23] of the same compound?
Its residual activity is 81%.

What about the residual activity [24] of the same compound?
Its residual activity is 100%.

And the residual activity [25]?
Its residual activity is 89%.

What about the inhibition [26] of the same compound?
Its inhibition is 18.5%.

What about the residual activity [27] of the same compound?
Its residual activity is 100%.

What about the residual activity [28] of the same compound?
Its residual activity is 100%.

What about the IC50 (NS3 protease) of the same compound?
The IC50 was 4870 nM (not active).

And the inhibition [29]?
The inhibition was -4.47%.

And the residual activity [30]?
The residual activity was 89%.

What about the residual activity [31] of the same compound?
Its residual activity is 100%.

What about the residual activity [32] of the same compound?
Its residual activity is 100%.

And the residual activity [33]?
The residual activity was 93%.

What about the residual activity [34] of the same compound?
Its residual activity is 100%.

What about the residual activity [35] of the same compound?
The residual activity was 94%.

What about the residual activity [36] of the same compound?
The residual activity was 100%.

What about the inhibition [37] of the same compound?
The inhibition was 8.15%.

What about the residual activity [38] of the same compound?
Its residual activity is 100%.

And the residual activity [39]?
The residual activity was 73%.

What about the residual activity [40] of the same compound?
The residual activity was 100%.

What about the residual activity [41] of the same compound?
Its residual activity is 97%.

And the residual activity [42]?
Its residual activity is 100%.

And the residual activity [43]?
The residual activity was 97%.

And the residual activity [44]?
The residual activity was 100%.
